Reference: patent US9790210B2, “N-(monocyclic aryl),N'-pyrazolyl-urea, thiourea, guanidine and cyanoguanidine compounds as TrkA kinase inhibitors” (Array BioPharma Inc., priority 2012, dated 2017)
Structures can show the parent of a compound that is named as a salt.

Target: TrkA (Homo sapiens, UniProt P04629)
Assay: TrkA LanthaScreen Eu Kinase Binding Assay
Design: 6HIS tagged cytoplasmic domain from Invitrogen, Catalog No. PV3144; purchased Invitrogen PV3144
Details: averaged IC50; TR-FRET binding assay; read-out: TrkA Enzyme IC50
Procedure: TrkA binding activity was determined in a TrkA LanthaScreen™ Eu Kinase Binding Assay. 5 nM His-tagged recombinant human TrkA (6HIS tagged cytoplasmic domain from Invitrogen, Catalog No. PV3144) was incubated with 4 nM Alexa-Fluor® Tracer 236 (Invitrogen Cat. No. PV5592), 2 nM biotinylated anti-His (Invitrogen Cat. No. PV6090), and 2 nM europium-labeled Streptavidin (Invitrogen Cat. No. PV5899), in buffer (25 mM MOPS, pH 7.5, 5 mM MgCl2, 0.005% Triton X-100). Three fold serial dilutions of compounds of the invention in DMSO were added to a final percentage of 2% DMSO. After 60-minute incubation at 22° C., the reaction was measured using the EnVision mutlimode plate reader (PerkinElmer) via TR-FRET dual wavelength detection at […]. The percent of control was calculated using a ratiometric emission factor. The IC50 values were determined by fitting a four parameter model to the percent of control data.
Table A provides averaged IC50 values for compounds of the invention when tested in the assay of Example A, where A represents an averaged IC50 value<100 nM; B represents an averaged IC50 value from 100 to 1,000 nM; and C represents an averaged IC50 value from 1,000 to 10,000 nM.

TrkA, sequence (P04629 440-796 limits assumed): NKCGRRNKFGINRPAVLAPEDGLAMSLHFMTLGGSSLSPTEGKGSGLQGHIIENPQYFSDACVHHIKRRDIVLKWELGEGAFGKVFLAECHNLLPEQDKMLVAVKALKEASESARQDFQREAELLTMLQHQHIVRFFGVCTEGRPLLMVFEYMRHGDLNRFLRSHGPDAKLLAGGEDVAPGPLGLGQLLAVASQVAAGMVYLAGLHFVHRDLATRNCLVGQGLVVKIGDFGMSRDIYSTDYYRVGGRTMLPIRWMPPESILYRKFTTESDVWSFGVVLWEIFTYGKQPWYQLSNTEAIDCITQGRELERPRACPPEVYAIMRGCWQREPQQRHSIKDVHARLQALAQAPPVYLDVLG

Row | IC50 | Structure (SMILES)
1 | < 0.1 µM | COCCCc1cc(Cl)c(Cl)cc1NC(=O)Nc1c(C)c(OCCN2CCN(C)CC2)nn1-c1ccccc1 [Example 28, 1-(4,5-dichloro-2-(3-methoxypropyl)phenyl)-3-(4-methyl-3-(2-(4-methylpiperazin-1-yl)ethoxy)-1-phenyl-1H-pyrazol-5-yl)urea]
2 | < 0.1 µM | COCCCc1cc(Cl)c(Cl)cc1NC(=O)Nc1c(C)c(C2CCN(C)CC2)nn1-c1ccccc1 [Example 18, 1-(4,5-dichloro-2-(3-methoxypropyl)phenyl)-3-(4-methyl-3-(1-methylpiperidin-4-yl)-1-phenyl-1H-pyrazol-5-yl)urea]
3 | < 0.1 µM | COCCCc1cc(Cl)c(Cl)cc1NC(=O)Nc1c(C)c(OCC2CN(C)C2)nn1-c1ccccc1 [Example 37, 1-(4,5-dichloro-2-(3-methoxypropyl)phenyl)-3-(4-methyl-3-((1-methylazetidin-3-yl)methoxy)-1-phenyl-1H-pyrazol-5-yl)urea]
4 | < 0.1 µM | COCCCc1cc(Cl)c(Cl)cc1NC(=O)Nc1c(C)c(OC2CCN(C)CC2)nn1-c1ccccc1 [Example 30, 1-(4,5-dichloro-2-(3-methoxypropyl)phenyl)-3-(4-methyl-3-((1-methylpiperidin-4-yl)oxy)-1-phenyl-1H-pyrazol-5-yl)urea]
5 | < 0.1 µM | COCCCc1cc(Cl)c(Cl)cc1NC(=O)Nc1c(C)c(OCC2CCN(C)CC2)nn1-c1ccccc1 [Example 24]
6 | < 0.1 µM | COCCCc1cc(Cl)c(Cl)cc1NC(=O)Nc1c(C)c(OC[C@@H]2CCCNC2)nn1-c1ccccc1 [Example 47, (R)-1-(4,5-dichloro-2-(3-methoxypropyl)phenyl)-3-(4-methyl-1-phenyl-3-(piperidin-3-ylmethoxy)-1H-pyrazol-5-yl)urea hydrochloride]
7 | < 0.1 µM | COCCCc1cc(Cl)c(Cl)cc1NC(=O)Nc1c(C)c(OCC2CCCN2)nn1-c1ccccc1 (centres unmarked) [Example 43, 1-(4,5-dichloro-2-(3-methoxypropyl)phenyl)-3-(4-methyl-1-phenyl-3-(pyrrolidin-2-ylmethoxy)-1H-pyrazol-5-yl)urea hydrochloride]
8 | < 0.1 µM | COCCCc1cc(Cl)c(Cl)cc1NC(=O)Nc1c(C)c(OCC2CCNCC2)nn1-c1ccccc1 [Example 41, 1-(4,5-dichloro-2-(3-methoxypropyl)phenyl)-3-(4-methyl-1-phenyl-3-(piperidin-4-ylmethoxy)-1H-pyrazol-5-yl)urea hydrochloride]
9 | < 0.1 µM | COCCCc1cc(Cl)c(Cl)cc1NC(=O)Nc1c(C)c(OCCC2CCN(C)CC2)nn1-c1ccccc1 [Example 29, 1-(4,5-dichloro-2-(3-methoxypropyl)phenyl)-3-(4-methyl-3-(2-(1-methylpiperidin-4-yl)ethoxy)-1-phenyl-1H-pyrazol-5-yl)urea]
10 | < 0.1 µM | COCCCc1cc(Cl)c(Cl)cc1NC(=O)Nc1c(C)c(OC[C@H]2CNCCO2)nn1-c1ccccc1 [Example 44, (R)-1-(4,5-dichloro-2-(3-methoxypropyl)phenyl)-3-(4-methyl-3-(morpholin-2-ylmethoxy)-1-phenyl-1H-pyrazol-5-yl)urea hydrochloride]
11 | < 0.1 µM | COCCCc1cc(Cl)c(Cl)cc1NC(=O)Nc1c(C)c(C(=O)NC2CCN(C)CC2)nn1-c1ccccc1 [Example 33, 5-(3-(4,5-dichloro-2-(3-methoxypropyl)phenyl)ureido)-4-methyl-N-(1-methylpiperidin-4-yl)-1-phenyl-1H-pyrazole-3-carboxamide]

Continued, molecule first:

Row | Structure (SMILES) | IC50
12 | COCCOc1ccc(C(F)(F)F)cc1NC(=O)Nc1c(C)c(-c2cnn(C)c2)nn1-c1ccccc1 [Example 2, 1-(1′,4-dimethyl-1-phenyl-1H,1′H-[3,4′-bipyrazol]-5-yl)-3-(2-(2-methoxyethoxy)-5-(trifluoromethyl)phenyl)urea] | < 0.1 µM
13 | COCCCc1cc(Cl)c(Cl)cc1NC(=O)Nc1c(C)c(OC[C@@H]2CNCCO2)nn1-c1ccccc1 [Example 38, (S)-1-(4,5-dichloro-2-(3-methoxypropyl)phenyl)-3-(4-methyl-3-(morpholin-2-ylmethoxy)-1-phenyl-1H-pyrazol-5-yl)urea hydrochloride] | < 0.1 µM
14 | COCCCc1ccc(Cl)cc1NC(=O)Nc1c(C)c(-c2cnn(C)c2)nn1-c1ccccc1 [Example 9, 1-(5-chloro-2-(3-methoxypropyl)phenyl)-3-(1′,4-dimethyl-1-phenyl-1H,1′H-[3,4′-bipyrazol]-5-yl)urea] | < 0.1 µM
15 | COCCOc1cc(C(F)(F)F)ccc1NC(=O)Nc1c(C)c(-c2cnn(C)c2)nn1-c1ccccc1 [Example 10, 1-(1′,4-dimethyl-1-phenyl-1H,1′H-[3,4′-bipyrazol]-5-yl)-3-(2-(2-methoxyethoxy)-4-(trifluoromethyl)phenyl)urea] | < 0.1 µM
16 | COCCOc1ccc(Cl)cc1NC(=O)Nc1c(C)c(-c2cnn(C)c2)nn1-c1ccccc1 [Example 12, 1-(5-chloro-2-(2-methoxyethoxy)phenyl)-3-(1′,4-dimethyl-1-phenyl-1H,1′H-[3,4′-bipyrazol]-5-yl)urea] | < 0.1 µM
17 | COCCCc1cc(F)c(C(F)(F)F)cc1NC(=O)Nc1c(C)c(OC[C@H](O)CO)nn1-c1ccccc1 [Example 22, (R)-1-(3-(2,3-dihydroxypropoxy)-4-methyl-1-phenyl-1H-pyrazol-5-yl)-3-(4-fluoro-2-(3-methoxypropyl)-5-(trifluoromethyl)phenyl)urea] | < 0.1 µM
18 | COCCCc1cc(Cl)c(Cl)cc1NC(=O)Nc1c(C)c(OCCN2CCN(C(=O)OC(C)(C)C)CC2)nn1-c1ccccc1 [Example 49, tert-butyl 4-(2-((5-(3-(4,5-dichloro-2-(3-methoxypropyl)phenyl)ureido)-4-methyl-1-phenyl-1H-pyrazol-3-yl)oxy)ethyl)piperazine-1-carboxylate] | < 0.1 µM
19 | COCCCc1cc(Cl)c(Cl)cc1NC(=O)Nc1c(C)c(C(=O)NC2CCOCC2)nn1-c1ccccc1 [Example 36, 5-(3-(4,5-dichloro-2-(3-methoxypropyl)phenyl)ureido)-4-methyl-1-phenyl-N-(tetrahydro-2H-pyran-4-yl)-1H-pyrazole-3-carboxamide] | < 0.1 µM
20 | CNC(=O)c1nn(-c2ccccc2)c(NC(=O)Nc2cc(C(F)(F)F)c(F)cc2CCCOC)c1C [Example 19, 5-(3-(4-fluoro-2-(3-methoxypropyl)-5-(trifluoromethyl)phenyl)ureido)-N,4-dimethyl-1-phenyl-1H-pyrazole-3-carboxamide] | < 0.1 µM
21 | COCCCc1cc(Cl)c(Cl)cc1NC(=O)Nc1c(C)c(C2(C#N)CCOCC2)nn1-c1ccccc1 [Example 14, 1-(3-(4-cyanotetrahydro-2H-pyran-4-yl)-4-methyl-1-phenyl-1H-pyrazol-5-yl)-3-(4,5-dichloro-2-(3-methoxypropyl)phenyl)urea] | < 0.1 µM
22 | COCCOc1nc(C(F)(F)F)ccc1NC(=O)Nc1c(C)c(-c2cnn(C)c2)nn1-c1ccccc1 [Example 7, 1-(1′,4-dimethyl-1-phenyl-1H,1′H-[3,4′-bipyrazol]-5-yl)-3-(2-(2-methoxyethoxy)-6-(trifluoromethyl)pyridin-3-yl)urea] | 0.1 to 1 µM
23 | COCCCc1cc(Cl)c(Cl)cc1NC(=O)Nc1c(C)c(OC[C@H](O)CO)nn1-c1ccccc1 [Example 21, (R)-1-(4,5-dichloro-2-(3-methoxypropyl)phenyl)-3-(3-(2,3-dihydroxypropoxy)-4-methyl-1-phenyl-1H-pyrazol-5-yl)urea] | < 0.1 µM
